# From paper PMC4032193 (Journal of Medicinal Chemistry, 2014)
# Where two headings read alike, the source gives them in different places.
# Legend:
# [1] = tested on: P. falciparum African D6 clone; test: microbe, parasite or virus in culture; type: cell-based; settings: Plasmodium falciparum, D6, read-out: D6 IC50
# [2] = tested on: P. falciparum multidrug resistant TM91C235 strain (Thailand); test: microbe, parasite or virus in culture; type: cell-based; settings: Plasmodium falciparum, read-out: TM91C235 IC50
# [3] = tested on: P. falciparum Indochina W2 clone; test: microbe, parasite or virus in culture; type: cell-based; settings: Plasmodium falciparum, W2, read-out: W2 IC50
# [4] = tested on: HepG2 (hepatocellular carcinoma) cell line; settings: human
# in vitro = settings: mouse, microsomes
# [5] = human
# [6] = mouse
# P. berghei = settings: mouse, in vivo
# BoNT/A LC = BoNT/A LC (Clostridium botulinum, UniProt P0DPI0); test: biochemical
# BoNT/A LC, sequence (P0DPI0 2-448 limits assumed): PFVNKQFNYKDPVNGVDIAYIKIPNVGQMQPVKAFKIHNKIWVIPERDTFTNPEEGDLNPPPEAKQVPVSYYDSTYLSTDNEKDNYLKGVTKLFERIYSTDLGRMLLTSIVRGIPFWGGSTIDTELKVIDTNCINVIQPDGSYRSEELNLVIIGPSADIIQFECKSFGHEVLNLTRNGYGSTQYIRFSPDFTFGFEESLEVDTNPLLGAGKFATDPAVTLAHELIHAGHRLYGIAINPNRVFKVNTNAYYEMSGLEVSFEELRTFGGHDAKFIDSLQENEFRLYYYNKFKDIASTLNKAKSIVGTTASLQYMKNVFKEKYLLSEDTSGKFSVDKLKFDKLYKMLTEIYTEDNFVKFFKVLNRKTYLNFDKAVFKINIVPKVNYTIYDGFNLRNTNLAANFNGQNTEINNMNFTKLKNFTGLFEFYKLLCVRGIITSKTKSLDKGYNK
Structure (SMILES),SI HepG2/D6 [4],SI HepG2/TM91C235 [4],SI HepG2/W2 [4],also measured
"CCN(CC)CCCC(C)Nc1ccnc2cc(Cl)ccc12 (stereo not drawn) [Compound 9, chloroquine]",,,,IC50 [1]: 12.3 nM
"CC(=O)O[C@@H]1CC[C@@]2(C)[C@@H](C1)C[C@@H](OC(C)=O)[C@@H]1[C@@H]2C[C@H](OC(C)=O)[C@]2(C)[C@@H]([C@H](C)CCCNCCNc3ccnc4cc(Cl)ccc34)CC[C@@H]12 [Compound 12, N-(3α,7α,12α-Triacetoxy-5β-cholan-24-yl)-N′-(7′-chloroquinolin-4′-yl)ethane-1,2-diamine]",,,,IC50 [2]: 27.7 nM; IC50 [1]: 16.9 nM; IC50 [3]: 11.4 nM
CC(=O)O[C@H]1C[C@H]2[C@@H]([C@H](OC(C)=O)C[C@@H]3C[C@H](O)CC[C@@]32C)[C@@H]2CC[C@H]([C@H](C)CCCNCCCNc3ccnc4cc(Cl)ccc34)[C@@]12C [Compound 17],84/115/90,84/115/90,84/115/90,half-life (in vitro): > 1 h
CC(=O)O[C@H]1C[C@H]2[C@@H]([C@H](OC(C)=O)C[C@@H]3C[C@H](NS(C)(=O)=O)CC[C@@]32C)[C@@H]2CC[C@H]([C@H](C)CCCN(C)CCCNc3ccnc4cc(Cl)ccc34)[C@@]12C [Compound 43],93/89/139,93/89/139,93/89/139,half-life (in vitro): > 1 h
"CC(=O)O[C@H]1C[C@H]2[C@@H]([C@H](OC(C)=O)C[C@@H]3C[C@H](N(C)C)CC[C@@]32C)[C@@H]2CC[C@H]([C@H](C)CCCNCCNc3ccnc4cc(Cl)ccc34)[C@@]12C [Compound 50, 24-N-[(7-Chloroquinoline-4-yl)amino]ethylamino-3α-N′,N′-dimethylamino-7α,12α-diacetoxy-5β-cholane]",714/333/435,714/333/435,714/333/435,HLM stability (t1/2) [5]: 60/60 min; MLM stability (t1/2) [6]: 60/60 min
"CC(=O)O[C@H]1C[C@H]2[C@@H]([C@H](OC(C)=O)C[C@@H]3C[C@H](N)CC[C@@]32C)[C@@H]2CC[C@H]([C@H](C)CCCN(C)CCNc3ccnc4cc(Cl)ccc34)[C@@]12C [Compound 54, 24-N-Methyl-N-[(7-chloroquinoline-4-yl)amino]ethylamino-3α-amino-7α,12α-diacetoxy-5β-cholane]",4993/3995/2327,4993/3995/2327,4993/3995/2327,protection/cure of mice (P. berghei): failed to protect/cure mice; day postinfection on which mice died (P. berghei; po): 13; signs of compound toxicity upon necropsy (P. berghei; po): no signs of tissue damage caused by compound toxicity; HLM stability (t1/2) [5]: 60/60 min; MLM stability (t1/2) [6]: 60/60 min
"CC(=O)O[C@H]1C[C@H]2[C@@H]([C@H](OC(C)=O)C[C@@H]3C[C@H](N(C)C)CC[C@@]32C)[C@@H]2CC[C@H]([C@H](C)CCCN(C)CCNc3ccnc4cc(Cl)ccc34)[C@@]12C [Compound 56, 24-N-Methyl-N-[(7-chloroquinoline-4-yl)amino]ethylamino-3α-N′,N′-dimethylamino-7α,12α-diacetoxy-5β-cholane]",6824/3920/3176,6824/3920/3176,6824/3920/3176,half-life (in vitro): > 1 h
CC(=O)O[C@H]1C[C@H]2[C@@H]([C@H](OC(C)=O)C[C@@H]3C[C@H](N(C)C)CC[C@@]32C)[C@@H]2CC[C@H]([C@H](C)CCCN(C)CCCNc3ccnc4cc(Cl)ccc34)[C@@]12C [Compound 57],93/35/71,93/35/71,93/35/71,HLM stability (t1/2) [5]: 60/60 min; MLM stability (t1/2) [6]: 60/60 min
"CC(=O)O[C@H]1C[C@H]2[C@@H]([C@H](OC(C)=O)C[C@@H]3C[C@H](NC(=O)OC(C)(C)C)CC[C@@]32C)[C@@H]2CC[C@H]([C@H](C)CCCN(CCCNc3ccnc4cc(Cl)ccc34)CCC[C@@H](C)[C@H]3CC[C@H]4[C@@H]5[C@H](OC(C)=O)C[C@@H]6C[C@H](NC(=O)OC(C)(C)C)CC[C@]6(C)[C@H]5C[C@H](OC(C)=O)[C@]34C)[C@@]12C [Compound 59, N,N-Di(3α-amino-tert-butylcarbamate-7α,12α-diacetoxy-5β-cholan-24-yl)-N′-(7′-chloroquinoline-4′-yl)-1,3-propanediamine]",96/96/96,96/96/96,96/96/96,inhibition at 20 µM (BoNT/A LC; at 20 μM): 6%
CC(=O)O[C@H]1C[C@H]2[C@@H]([C@H](OC(C)=O)C[C@@H]3C[C@H](N)CC[C@@]32C)[C@@H]2CC[C@H]([C@H](C)CCCN(CCCNc3ccnc4cc(Cl)ccc34)CCC[C@@H](C)[C@H]3CC[C@H]4[C@@H]5[C@H](OC(C)=O)C[C@@H]6C[C@H](N)CC[C@]6(C)[C@H]5C[C@H](OC(C)=O)[C@]34C)[C@@]12C [Compound 61],10/9/7,10/9/7,10/9/7,
"N=C(N)c1ccc(Oc2ccc(-c3cc4ccc(C(=N)N)cc4[nH]3)cc2)cc1 [NSC 240898, reference compound]",,,,inhibition at 20 µM (BoNT/A LC): 73.3%
